Reference: patent US9420813B2, “Sweetener” (AJINOMOTO CO., INC., priority 2007, dated 2016)
*1 amine or outer side, *2 acyl side, *3 side chain or, on linkers, in order; H or OH if unused. Where no end group is shown, it is not given here. [ ]: non-standard residue; d: D form. γGlu = O=C(O)[C@H](CCC(=O)[*:2])N[*:1]; Abu = CC[C@H](N)C(=O)O

Assay: Quantitative sensory evaluation, improvement of body taste and bitterness of combined high-intensity sweeteners (Examples 2 and 4)
Design: species or system human
Conditions: for Bitterness: control 0, <0 improved; for Bitterness / Body taste: n=12; for Body taste: control 0, >0 improved; for improvement of the body taste (conclusion in words): combined sweetener solutions, Tables 9 to 12 and 16 to 19
Procedure: The quantitative sensory evaluation test was performed as follows. As for a combination standard solution of each sweeteners, the following compounds were used. The following standard solutions have been adjusted so they each have almost the same degree of sweetness.
ii) APM (0.02 g/dl)+Ace-K (0.005 g/dl) [APM:Ace-K=8:2 as a ratio of degrees of sweetness]
iii) Sucralose (0.0058 g/dl)+Ace-K (0.0075 g/dl) [sucralose:Ace-K=7:3 as a ratio of degrees of sweetness]
iv) APM (0.0125 g/dl)+sucralose (0.0042 g/dl) [APM:sucralose=1:1 as a ratio of degrees of sweetness]
v) APM (0.0125 g/dl)+sucralose (0.0021 g/dl)+Ace-K (0.0063 g/dl) [APM:sucralose:Ace-K=2:1:1 as a ratio of degrees of sweetness]
To distilled water containing each of the sweeteners, γ-Glu-Cys-Gly (glutathione), γ-Glu-Val-Gly or γ-Glu-Abu-Gly was added and mixed at concentrations of 0.0001 to 1 g/dl, and then the degree of the improvement of the body taste and the improvement of the bitterness on the sweet taste was measured. The addition effect of the peptides on each of the high-intensity sweeteners was evaluated with reference to sucrose.
When a mixture is more acidic than the standard control solution, the pH of the mixture was adjusted with NaOH to achieve a range of pH±0.2 with respect to the pH of the standard solution before use.
The sensory evaluation for the improvement of the body taste was performed with n=12 on the basis of the following criteria: a control (obtained by adding distilled water only and without adding glutathione and/or the peptide) was defined as 0, and by using the control as a standard, the follow were defined: weak: −2 points; slightly weak: −1 point; slightly strong: 1 point, and strong: 2 points. A higher score than 0 means that the sample has a body taste-improving effect.
(§1) Alternatively, the sensory evaluation for the improvement of the bitterness was performed with n=12 on the basis of the following criteria: a control (obtained by adding distilled water only and without adding glutathione and/or the peptide) was defined as 0, and by using the control as a standard, the following were defined: weak: −2 points; slightly weak: −1 point; slightly strong: 1 point, and strong: 2 points. A lower score than 0 means that the sample improves the bitterness.
The quantitative sensory evaluation test was performed as follows. As for combination standard solution of each sweeteners, the following compound was used. The following standard solutions have been adjusted so they each have almost the same degree of sweetness.
To distilled water containing each sweetener mentioned above, γ-Glu-Val-Gly or cinacalcet was added and mixed at concentrations of 0.0001 to 1 g/dl, and then each degree of the improvement of the body taste and the improvement of the bitterness on the sweet taste was measured. The addition effect of the sample on each of the high intensity sweeteners was evaluated with reference to sucrose.
When a mixture is more acidic than the standard control solution, the pH of the sample was adjusted with NaOH to achieve a range of pH±0.2 with respect to the pH of the standard solution before use.
The sensory evaluation for the improvement of the body taste was performed with n=12 on the basis of the following criteria: a control (obtained with adding distilled water only and without adding the sample) was defined as 0, and by using the control as a standard, the following were defined: weak: −2 points; slightly weak: −1 point; slightly strong: 1 point, and strong: 2 points. A higher score than 0 means that the sample improves the body taste.
as §1, with “(obtained with” for “(obtained by”, “adding” for “adding glutathione and/or”, “the sample)” for “the peptide)”, “points. […]” for “points. A lower score than 0 means that the sample improves the bitterness.”

[1] = APM 0.0125 + sucralose 0.0021 + Ace-K 0.0063 g/dl (2:1:1), sample 0.001 g/dl
[2] = APM 0.0125 + sucralose 0.0021 + Ace-K 0.0063 g/dl (2:1:1), sample 0.01 g/dl
[3] = APM 0.0125 g/dl + sucralose 0.0042 g/dl (1:1), sample 0.001 g/dl
[4] = APM 0.0125 g/dl + sucralose 0.0042 g/dl (1:1), sample 0.01 g/dl
[5] = APM 0.02 g/dl + Ace-K 0.005 g/dl (8:2), sample 0.001 g/dl
[6] = APM 0.02 g/dl + Ace-K 0.005 g/dl (8:2), sample 0.01 g/dl
[7] = sucralose 0.0058 g/dl + Ace-K 0.0075 g/dl (7:3), sample 0.001 g/dl
[8] = sucralose 0.0058 g/dl + Ace-K 0.0075 g/dl (7:3), sample 0.01 g/dl
[9] = APM 0.0125 + sucralose 0.0021 + Ace-K 0.0063 g/dl (2:1:1), sample 0.0001 g/dl
[10] = APM 0.0125 g/dl + sucralose 0.0042 g/dl (1:1), sample 0.0001 g/dl
[11] = APM 0.02 g/dl + Ace-K 0.005 g/dl (8:2), sample 0.0001 g/dl
[12] = APM:Ace-K = 8:2, sample 0.0001 g/dl
[13] = sucralose 0.0058 g/dl + Ace-K 0.0075 g/dl (7:3), sample 0.0001 g/dl
[14] = APM 0.0125 + sucralose 0.0021 + Ace-K 0.0063 g/dl (2:1:1), sample 0.05 g/dl
[15] = APM 0.0125 g/dl + sucralose 0.0042 g/dl (1:1), sample 0.05 g/dl
[16] = APM 0.02 g/dl + Ace-K 0.005 g/dl (8:2), sample 0.05 g/dl
[17] = sucralose 0.0058 g/dl + Ace-K 0.0075 g/dl (7:3), sample 0.05 g/dl

| Molecule | Bitterness [1] [points] | Body taste [1] [points] | Bitterness [3] [points] | Body taste [3] [points] | Bitterness [5] [points] | Body taste [5] [points] | Bitterness [7] [points] | Body taste [7] [points] | Bitterness [9] [points] | Body taste [9] [points] | Bitterness [10] [points] | Body taste [10] [points] | Bitterness [11] [points] | Body taste [11] [points] | Taste profile [12] | improvement of the body taste (conclusion in words) | Bitterness [13] [points] | Body taste [13] [points] | other results |
| --- | --- | --- | --- | --- | --- | --- | --- | --- | --- | --- | --- | --- | --- | --- | --- | --- | --- | --- | --- |
| [γGlu]-[Abu]-Gly | −0.4 | 0.6 | −0.1 | 0.6 | −0.3 | 0.6 | −0.3 | 0.5 |  |  |  |  |  |  |  |  |  |  | Bitterness [2]: −0.8 points; Body taste [2]: 1.3 points; Bitterness [4]: −0.1 points; Body taste [4]: 1.3 points; Bitterness [6]: −0.7 points; Body taste [6]: 1.3 points; Taste profile (APM:sucralose = 1:1, sample 0.001 g/dl): Harmony is present. Sweet taste is enhanced; Taste profile (APM:sucralose = 1:1, sample 0.01 g/dl): Harmony is present. Sweet taste is enhanced; Bitterness [8]: −0.7 points; Body taste [8]: 1.1 points |
| C[C@@H](NCCCc1cccc(C(F)(F)F)c1)c1cccc2ccccc12 [Cinacalcet, (R)—N-(3-(3-(trifluoromethyl)phenyl)propyl)-1-(1-naphthyl)ethylamine, reference compound] | −0.4 | 1.1 | −0.2 | 1.1 | −0.3 | 1.1 | −0.3 | 1.5 | −0.2 | 0.5 | −0.2 | 0.5 | −0.1 | 0.5 | Sweet taste with growth is enhanced in middle | improves the body taste at almost the same concentration | −0.1 | 0.8 | Taste profile (APM:Ace-K = 8:2, sample 0.001 g/dl): Sweet taste with growth is enhanced in middle; Taste profile (APM:sucralose:Ace-K = 2:1:1, sample 0.0001 g/dl): Harmony and richness are present in middle; Taste profile (APM:sucralose:Ace-K = 2:1:1, sample 0.001 g/dl): Harmony and richness are present in middle |
| [γGlu]-Val-Gly | −0.7 | 1.3 | −0.4 | 1.3 | −0.7 | 1.3 | −0.7 | 1.3 | −0.3 | 0.6 | −0.2 | 0.6 | −0.3 | 0.6 | Sweet taste with growth is enhanced in middle | improves the body taste at almost the same concentration | −0.3 | 0.7 |  |
| N[C@@H](CCC(=O)N[C@@H](CS)C(=O)NCC(=O)O)C(=O)O [γ-Glu-Cys-Gly, reference compound] |  |  |  |  |  |  |  |  |  |  |  |  |  |  |  |  |  |  | Bitterness [14]: −0.3 points; Body taste [14]: 1.2 points; Bitterness [15]: −0.3 points; Body taste [15]: 1.0 points; Bitterness [16]: −0.3 points; Body taste [16]: 1.0 points; Taste profile (APM:Ace-K = 8:2, sample 0.05 g/dl): Sweet taste is wholly enhanced.; Taste profile (APM:sucralose = 1:1, sample 0.05 g/dl): Sweet taste is enhanced in middle taste.; Taste profile (APM:sucralose:Ace-K = 2:1:1, sample 0.05 g/dl): Sweet taste is wholly enhanced.; Bitterness [17]: −0.3 points; Body taste [17]: 1.0 points; Taste profile (sucralose:Ace-K = 7:3, sample 0.05 g/dl): Sweet taste is enhanced in middle taste. |
